These results are taken from article PMC8504577, “Evaluation of a Clinically Relevant Drug–Drug Interaction Between Rosuvastatin and Clopidogrel and the Risk of Hepatotoxicity” (Frontiers in Pharmacology, 2021).

Structures are written as SMILES. Where two headings read alike, the source gives them in different places.

The conditions of data set [1]: human; ref Ayalasomayajula et al., 2007; Itkonen et al., 2015; cited from earlier work.
Data set [2] relates to OATP1B1. Conditions: ref Tamraz et al. (2013), cited from earlier work.
The conditions of data set [3]: for Imax,u, unbound steady-state plasma peak concentration: fu×I1.
On the set-up of data set [4]: method as in Tornio et al. (2014). Conditions: ref Tornio et al. (2014); cited from earlier work.
The conditions of data set [5]: cited from earlier work.
Data set [6] addresses T1, OATP1B3 (Homo sapiens, UniProt Q9NPD5).
T1 sequence (Q9NPD5 1-702): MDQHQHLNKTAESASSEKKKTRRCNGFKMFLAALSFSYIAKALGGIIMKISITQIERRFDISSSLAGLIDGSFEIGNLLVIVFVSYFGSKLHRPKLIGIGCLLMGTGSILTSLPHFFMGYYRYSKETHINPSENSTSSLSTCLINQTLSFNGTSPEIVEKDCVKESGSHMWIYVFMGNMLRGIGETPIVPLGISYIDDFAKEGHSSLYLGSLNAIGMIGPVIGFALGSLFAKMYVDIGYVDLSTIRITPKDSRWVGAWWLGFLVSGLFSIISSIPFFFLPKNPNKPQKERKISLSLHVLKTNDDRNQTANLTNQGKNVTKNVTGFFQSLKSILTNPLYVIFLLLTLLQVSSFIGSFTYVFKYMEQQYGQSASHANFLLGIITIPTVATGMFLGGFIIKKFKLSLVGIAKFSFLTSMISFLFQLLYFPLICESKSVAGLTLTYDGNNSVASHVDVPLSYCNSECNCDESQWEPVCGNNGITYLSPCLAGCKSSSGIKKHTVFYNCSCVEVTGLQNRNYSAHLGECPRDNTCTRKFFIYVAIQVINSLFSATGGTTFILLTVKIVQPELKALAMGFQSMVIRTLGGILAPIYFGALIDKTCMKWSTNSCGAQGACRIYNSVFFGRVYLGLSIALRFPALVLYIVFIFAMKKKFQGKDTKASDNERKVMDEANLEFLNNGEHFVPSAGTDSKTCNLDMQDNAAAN
The data set is described as follows: cell-based. As to conditions: 100 μM. As to the method: (§1) The OATP1B1, OATP1B3, and mock cells were cultured in the DMEM medium containing 10% fetal bovine serum, penicillin–streptomycin solution (100 U/mL and 0.1 mg/ml), and 0.5 mg/ml geneticin at 37°C in the presence of 5% CO2. The cells were seeded in a 24-well plate at a density of 4×10^5 cells/well and grown for 80–90% confluence. […] After washing the cells three times with transporter buffer at 4°C, the cells were lysed with liquid nitrogen. The lysates were precipitated with methanol and centrifuged at 12,000 rpm at 4°C for 5 min. The supernatant was analyzed by LC-MS/MS. Protein concentration was determined using the Pierce® BCA Protein Assay Kit. All experiments were performed in triplicate.
(§2) Phoenix WinNonlin® 7.1 (Pharsight Corporation, Mountain View, CA, United States) was used to calculate the pharmacokinetic parameters by the noncompartmental method. IC50 values were obtained by a computer-generated nonlinear least squares fit using GraphPad Prism 8.1 (GraphPad Software, San Diego, CA, United States). Statistical analysis was performed using SPSS ver. 22.0 (IBM, Chicago, IL, United States). The results are presented as mean ± S.D., unless otherwise stated. After testing for the homogeneity of variance, statistical analysis was performed with a one-way ANOVA followed by the LSD post hoc test or unpaired Student’s t-test. A probability (p) of less than 0.05, 0.01, and 0.001 was considered to be statistically significant, highly significant, and extremely significant, respectively.

Data set [7] deals with T2, OATP1B1 (Homo sapiens, UniProt Q9Y6L6).
T2 sequence (Q9Y6L6 1-691): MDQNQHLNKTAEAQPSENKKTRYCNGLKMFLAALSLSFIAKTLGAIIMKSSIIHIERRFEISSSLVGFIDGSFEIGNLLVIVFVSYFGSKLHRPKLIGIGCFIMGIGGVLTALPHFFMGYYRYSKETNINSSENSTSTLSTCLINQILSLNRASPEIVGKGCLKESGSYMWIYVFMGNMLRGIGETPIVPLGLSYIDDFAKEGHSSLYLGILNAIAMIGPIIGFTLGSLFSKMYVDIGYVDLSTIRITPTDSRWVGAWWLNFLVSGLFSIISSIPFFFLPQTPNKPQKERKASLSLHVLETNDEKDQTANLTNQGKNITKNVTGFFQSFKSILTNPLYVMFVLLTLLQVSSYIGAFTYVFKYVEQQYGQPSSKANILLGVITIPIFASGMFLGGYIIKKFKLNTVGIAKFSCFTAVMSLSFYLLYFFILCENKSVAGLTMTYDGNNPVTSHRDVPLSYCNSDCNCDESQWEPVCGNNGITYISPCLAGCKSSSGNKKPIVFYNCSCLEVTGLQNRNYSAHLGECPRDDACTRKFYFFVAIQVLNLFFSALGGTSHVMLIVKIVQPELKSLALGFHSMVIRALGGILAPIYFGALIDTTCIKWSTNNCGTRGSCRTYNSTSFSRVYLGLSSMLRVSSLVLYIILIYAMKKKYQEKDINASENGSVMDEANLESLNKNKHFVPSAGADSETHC
The data set is described as follows: cell-based. Conditions: 100 μM. Here is the method:
as §1, §2

For data set [8], the system named is human primary hepatocytes. Kind of data set: Cytotoxicity (MTT, AST, LDH) in cryopreserved human hepatocytes. Format: cell-based. As to conditions: 24 and 96 h incubation. As to the method: Cytotoxicity was determined with MTT assay in cryopreserved human hepatocytes. Thawing and plating of cryopreserved hepatocytes were carried out according to the manufacturer’s protocol. […] 11 μL of 5 mg/ml MTT was added to each well of the plate, and then the plate was incubated at 37°C for 3–4 h. After the medium was aspirated, 150 μL of DMSO was added to dissolve the formazan. The absorbance at 570 nm was measured and corrected for background absorption at 690 nm using a SpectraMax® i3 plate reader (Molecular Devices, Silicon Valley, CA, United States). AST and LDH levels in the medium of parallel processed plates were measured by commercially available assay kits. […] All experiments were performed in triplicate.

Data set [9] can be described thus: Plasma pharmacokinetic study in rats. Conditions: for AUC0–12h: rat plasma. As to the method:
For the plasma pharmacokinetic study, 16 rats were randomly assigned into four groups (n = 4, each group, groups I to IV) and received oral (p.o.) administrations as oral gavage of CP (27 mg/kg) or the same volume of vehicle control for 20 days. Then, the rats were made to fast overnight before dosing but with free access to water. On day 21, rats in group I were treated with a p.o. dose as oral gavage of CP at 27 mg/kg and a single intravenous (i.v.) dose of RSV at 5 mg/kg. Rats in group II were treated with a p.o. dose as oral gavage of vehicle control and a single i.v. dose of RSV at 5 mg/kg. Rats in group Ⅲ were treated with a p.o. dose as oral gavage of CP at 27 mg/kg and a p.o. dose as oral gavage of RSV at 5 mg/kg. Rats in group Ⅳ were treated with a p.o. dose as oral gavage of vehicle control and a p.o. dose as oral gavage of RSV at 5 mg/kg. Blood samples (0.15 ml) were collected at 0, 1, 2, 5, 15, 30, 60, 120, 180, 360, 480, 600, and 720 min after administration of the i.v. dose of the RSV group and at 0, 5, 30, 60, 120, 180, 360, 480, 600, and 720 min for the p.o. dose as oral gavage of the RSV group. After each sampling, a volume of 0.15 ml physiologic saline solutions was administered to sustain isotonic fluid balance. Plasma samples were harvested by using a centrifuge and then stored at −80°C until analysis by LC-MS/MS.
A Shimadzu LC-30AD liquid chromatography system (Shimadzu, Kyoto, Japan) and an API4000 triple quadruple tandem mass spectrometer (Applied Biosystems/Sciex, Framingham, MA, United States) coupled with an ESI source was used for the LC-MS/MS analysis of in vivo samples. The separation was carried out on an Agilent Extend C18 column (1.8 µm, 4.6 mm × 30 mm, Agilent Technologies). The mobile phase consisting of acetonitrile (A) and water (B: 1 mM ammonium acetate and 1% (V/V) formic acid). […] The flow rate was 1 ml/min and the gradient elution method was as follows: 0.01 min (10% A)-0.4 min (10% A), 0.8 min (95% A)-2.0 min (95% A), and 2.3 min (10% A)-2.5 min (stop).
as §2

Where [10] appears, read: substrate cerivastatin, read-out: IC50 OTAP1B1 (cerivastatin, CER, as substrate).
[11] abbreviates: substrate estrone sulfate, read-out: IC50 OTAP1B1 (estrone sulfate, ES, as substrate).

The term IC50 denotes the concentration that gives 50% inhibition.

Regarding `O=C(O)C[C@H](O)C[C@H](O)/C=C/c1c(C2CC2)nc2ccccc2c1-c1ccc(F)cc1` [pitavastatin], in data set [1], the “Effect of concomitant CP on plasma concentration of the statin” value is listed as “did not change”.

Take `O=C(O)[C@H]1O[C@@H](OC(=O)[C@H](c2ccccc2Cl)N2CCc3sccc3C2)[C@H](O)[C@@H](O)[C@@H]1O` [Clopidogrel acyl glucuronide, clopidogrel acyl-β-D-glucuronide]: the IC50 in data set [2] (setting [10]) is 10.9 µM; in data set [2] (setting [11]), 33.5 µM. Further, the “Imax,u, unbound steady-state plasma peak concentration” value in [3] (75 mg CP) turned out to be 0.172 µM; in data set [3] (300 mg CP) it was 0.477 µM. Besides, in [4], the “fu, fraction unbound in human plasma” value was 0.1 [Tornio et al. (2014)]. Also, the “I1, peak plasma concentration at steady state” value in [5] (75 mg CP, ref Itkonen et al. (2015)) was 1.72 [Itkonen et al. (2015)] μM; in data set [5] (300 mg CP, ref Itkonen et al. (2015)) it was 4.77 [Itkonen et al. (2015)] μM.

Regarding `CO[C@H]1/C=C/O[C@@]2(C)Oc3c(C)c(O)c4c(O)c(c(/C=N/N5CCN(C)CC5)c(O)c4c3C2=O)NC(=O)/C(C)=C\C=C\[C@H](C)[C@H](O)[C@@H](C)[C@@H](O)[C@@H](C)[C@H](OC(C)=O)[C@@H]1C` [rifampin], the “Inhibition of RSV uptake by OATP1B3 cells (positive control)” value in data set [6] is reported as “significantly inhibited”. The “Inhibition of RSV uptake by OATP1B1 cells (positive control)” value in data set [7] is on record as “significantly inhibited”.

`CC(C)n1c(/C=C/C(O)CC(O)CC(=O)O)c(-c2ccc(F)cc2)c2ccccc21` (stereo not drawn) [fluvastatin]: the “Effect of concomitant CP on plasma concentration of the statin” value in [1] is recorded as “did not change”.

As to `CC/C(=C(\c1ccccc1)c1ccc(OCCN(C)C)cc1)c1ccccc1` [tamoxifen], the “Cytotoxicity (MTT)” value in data set [8] is “Dose-dependent cytotoxicity”.

Consider `COC(=O)[C@H](c1ccccc1Cl)N1CCC2SC(=O)C=C2C1` (stereo partly drawn) [2-Oxo clopidogrel, 2-oxo clopidogrel], for which the values for the IC50 in data set [2] (setting [10]) and in [2] (setting [11]) were 8.18 µM and 8.97 µM, respectively. Besides, the “I1, peak plasma concentration at steady state” value in [3] (75 mg CP, calculated from I1 at 300 mg assuming linear pharmacokinetics) is 0.004 µM; in data set [5] (300 mg CP, ref Kim et al. (2016)), 0.016 [Kim et al. (2016)] μM. Besides, the “Imax,u, unbound steady-state plasma peak concentration” value worked out at 0.00008 µM in [3] (75 mg CP) and 0.0003 µM in data set [3] (300 mg CP). In [4], the “fu, fraction unbound in human plasma” value is 0.02 [Tornio et al. (2014)].

Take `O=C(O)[C@H](c1ccccc1Cl)N1CCc2sccc2C1` [CPC, clopidogrel carboxylic acid]: the “fu, fraction unbound in human plasma” value in data set [4] was 0.06 [Tornio et al. (2014)]. Also, the “AUC0–12h” value in [9] (Group I: single i.v. RSV 5 mg/kg + multiple p.o. CP 27 mg/kg) is reported as 299,764 ± 153,504.1 ng×h/mL; in [9] (Group III: single p.o. RSV 5 mg/kg + multiple p.o. CP 27 mg/kg) it was 230,181 ± 109,005.9 ng×h/mL. In addition, in data set [9] (rats, at 12 h post-dose), the Plasma exposure result is reported as “remains high”. Further, the Elimination half-life in data set [5] (ref Sanofi-Aventis, 2011) is 8 h.
